Reference: US20110092486A1, “IH CHANNEL INHIBITORS FOR THE PROMOTION OF WAKEFULNESS” (priority 2006, published 2011)
Read-outs that look alike come from different tables or passages of the source. Marks after values point to notes of the source that are not given here.

Assays:
[1] = system: sleep-wake organisation in the rat; test: Effect of Ih channel inhibition on sleep-wake organisation in rats (ACSO, EEG/EMG/movement); assay type: in vivo
Protocol: Methods: Sleep-wake organization was evaluated in instrumented male rats held on a 12:12 light-dark cycle. Classification of sleep-wake states was measured using an automated system (ACSO, Automatic Classification of Sleep Organization)^[i,ii] that records and processes EEG (cortical), EMG (neck muscle) and movement signals. Subjects were assigned to placebo, Org 34167 or ivabradine treatment groups and signals were recorded on two successive days. The first recording session provided a baseline recording following treatment with placebo only. This baseline day was used to extract a sleep classification algorithm for each individual subject. On the second day recording was started immediately after administration of placebo, Org 34167 (i.p.) or ivabradine (s.c.). Treatments were administered 2.5-3.0 h after lights-on. Data analysis and statistics: EEG, EMG and movement signals were used to classify every 2 second epoch into 6 different sleep stages using the algorithm derived for each individual subject from the baseline day recording. Six sleep-wake states were discriminated—Active waking (AW), Passive waking (PW), Light sleep (LS), Deep sleep (DS), Intermediate sleep (IS) and Rapid Eye Movement sleep (REM). Subsets of the six sleep-wake states were also combined to give Waking (PW and AW), Sleep (IS, REM, LS and DS) and NREM (LS and DS). For each treatment group, the median percentage of time spent in each sleep or waking state were calculated in 3 hour time intervals after drug injection. Significance was calculated by means of the two-sided rank sum test (Mann-Whitney test; P<0.025).

Ih channel = Ih channel inhibition, statement without method
hHCN1 = biological target: T1, hHCN1 (Homo sapiens, UniProt O60741); test: Determination of Ih channel inhibition, time-dependent current in HEK.hHCN1.2H10 cells; assay type: cell-based; details: holding potential −40 mV
T1 construct: expressed in transfected cells; host or cells: HEK cells, clone HEK.hHCN1.2H10
T1 sequence (O60741 1-890): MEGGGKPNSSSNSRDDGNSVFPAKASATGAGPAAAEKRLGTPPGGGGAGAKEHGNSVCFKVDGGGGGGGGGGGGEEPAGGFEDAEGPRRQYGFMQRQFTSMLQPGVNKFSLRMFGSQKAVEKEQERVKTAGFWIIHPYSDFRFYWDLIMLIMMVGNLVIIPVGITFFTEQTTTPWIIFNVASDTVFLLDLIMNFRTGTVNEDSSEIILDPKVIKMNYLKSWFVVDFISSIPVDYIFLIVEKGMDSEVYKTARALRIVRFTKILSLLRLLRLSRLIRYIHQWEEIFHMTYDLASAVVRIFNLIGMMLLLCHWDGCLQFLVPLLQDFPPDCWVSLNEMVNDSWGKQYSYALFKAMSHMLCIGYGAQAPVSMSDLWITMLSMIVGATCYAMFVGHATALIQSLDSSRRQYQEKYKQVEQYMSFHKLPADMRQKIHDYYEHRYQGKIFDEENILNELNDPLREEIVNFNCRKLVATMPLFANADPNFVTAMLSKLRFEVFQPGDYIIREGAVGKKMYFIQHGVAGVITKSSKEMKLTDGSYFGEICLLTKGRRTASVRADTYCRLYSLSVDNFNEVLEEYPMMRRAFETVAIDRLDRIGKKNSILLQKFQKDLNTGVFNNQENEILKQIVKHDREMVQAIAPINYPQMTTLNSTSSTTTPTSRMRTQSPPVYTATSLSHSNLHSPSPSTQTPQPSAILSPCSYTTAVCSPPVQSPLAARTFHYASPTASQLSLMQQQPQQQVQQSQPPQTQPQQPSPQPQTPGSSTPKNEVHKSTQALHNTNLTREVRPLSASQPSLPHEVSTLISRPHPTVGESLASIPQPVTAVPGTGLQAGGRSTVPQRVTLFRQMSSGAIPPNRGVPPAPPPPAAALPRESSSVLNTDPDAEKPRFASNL
Protocol: Methods: HEK.hHCN1.2H10 cells growing in culture were dissociated using CDS to lift the cells. They were suspended in high K external solution and used in the assay at a density of 2×10^6 cells.ml^−1. Two separate runs were performed with voltage steps to −80 mV and […] for 1 s; the holding potential in both cases was −40 mV. The amplitude of the time-dependent current (assumed to be all hHCN1) was measured as the difference between the current recorded immediately after the capacity transient on stepping to the test voltage and the current measured after it had reached a steady state amplitude (PeakAmp metric). The amount of inhibition was assessed by calculating the ratio of Post Compound PeakAmp/Pre Compound PeakAmp. Thus a ratio of 1 would indicate no inhibition and 0 would indicate 100% inhibition. Compounds were tested at concentrations between 0.152 μM and 333.3 μM, and a dose-response curve constructed. The IC50 value was obtained (the concentration causing half maximal inhibition) and the pIC50 calculated (the negative logarithm of the molar concentration causing half-maximal inhibition).

[2] = 5 mg/kg s.c., 9-12 h, lights off
[3] = 15 mg/kg s.c., 0-3 h, lights on
[4] = 15 mg/kg s.c., 3-6 h, lights on
[5] = 15 mg/kg s.c., 6-9 h, lights on
[6] = 15 mg/kg s.c., 9-12 h, lights off
[7] = 50 mg/kg s.c., 0-3 h, lights on
[8] = 50 mg/kg s.c., 3-6 h, lights on
[9] = 50 mg/kg s.c., 6-9 h, lights on
[10] = 50 mg/kg s.c., 9-12 h, lights off
[11] = 0.3 mg/kg i.p., 0-3 h, lights on
[12] = 0.3 mg/kg i.p., 3-6 h, lights on
[13] = 0.3 mg/kg i.p., 6-9 h, lights on
[14] = 0.3 mg/kg i.p., 9-12 h, lights off
[15] = 1 mg/kg i.p., 9-12 h, lights off

COc1cc2c(cc1OC)CC(=O)N(CCCN(C)C[C@H]1Cc3cc(OC)c(OC)cc31)CC2.Cl [ivabradine, (+)-3-[3-[N-[4,5-dimethoxybenzocyclobutan-1-(S)-ylmethyl]-N-methylamino]propyl]-7,8-dimethoxy-2,3,4,5-tetrahydro-1H-3-benzazepin-2-one hydrochloride]
median percentage of time spent in NREM ([1]; 5 mg/kg s.c., 0-3 h, lights on): 49.5% | median percentage of time spent in Sleep ([1]; 5 mg/kg s.c., 0-3 h, lights on): 58.2% | median percentage of time spent in Waking ([1]; 5 mg/kg s.c., 0-3 h, lights on): 41.8% | median percentage of time spent in NREM ([1]; 5 mg/kg s.c., 3-6 h, lights on): 68.9% | median percentage of time spent in Sleep ([1]; 5 mg/kg s.c., 3-6 h, lights on): 84.8% | median percentage of time spent in Waking ([1]; 5 mg/kg s.c., 3-6 h, lights on): 15.2% | median percentage of time spent in NREM ([1]; 5 mg/kg s.c., 6-9 h, lights on): 56.2% | median percentage of time spent in Sleep ([1]; 5 mg/kg s.c., 6-9 h, lights on): 72.9% | median percentage of time spent in Waking ([1]; 5 mg/kg s.c., 6-9 h, lights on): 27.1% | median percentage of time spent in NREM [1, 2]: 39.5% | median percentage of time spent in Sleep [1, 2]: 50.4% | median percentage of time spent in Waking [1, 2]: 49.6% | median percentage of time spent in NREM [1, 3]: 53.2% | median percentage of time spent in Sleep [1, 3]: 60.1* % | median percentage of time spent in Waking [1, 3]: 39.9* % | median percentage of time spent in NREM [1, 4]: 65.8% | median percentage of time spent in Sleep [1, 4]: 83.0% | median percentage of time spent in Waking [1, 4]: 17.0% | median percentage of time spent in NREM [1, 5]: 60.0% | median percentage of time spent in Sleep [1, 5]: 72.5% | median percentage of time spent in Waking [1, 5]: 27.5% | median percentage of time spent in NREM [1, 6]: 37.4% | median percentage of time spent in Sleep [1, 6]: 45.2% | median percentage of time spent in Waking [1, 6]: 54.8% | median percentage of time spent in NREM [1, 7]: 41.4% | median percentage of time spent in Sleep [1, 7]: 42.2* % | median percentage of time spent in Waking [1, 7]: 57.8* % | median percentage of time spent in NREM [1, 8]: 63.2% | median percentage of time spent in Sleep [1, 8]: 80.4% | median percentage of time spent in Waking [1, 8]: 19.6% | median percentage of time spent in NREM [1, 9]: 65.0% | median percentage of time spent in Sleep [1, 9]: 81.0% | median percentage of time spent in Waking [1, 9]: 19.0% | median percentage of time spent in NREM [1, 10]: 45.8* % | median percentage of time spent in Sleep [1, 10]: 57.9* % | median percentage of time spent in Waking [1, 10]: 42.1* % | effect on waking and sleep compared to placebo ([1]; ivabradine s.c., first 3 hours of the session): dose dependently increased waking and decreased sleep

NC(=O)C[S+]([O-])C(c1ccccc1)c1ccccc1 (centres unmarked) [modafanil]
Ih channel inhibitor or not (Ih channel): not to be an Ih channel inhibitor

C=CC[C@H](N)c1ccccc1-c1noc2ccccc12.Cl [Org 34167, (S)-2-(1,2-benzisoxazol-3-yl)-α-2-propenylbenzenemethanamine hydrochloride]
IC50 (hHCN1; voltage step to −80 mV for 1 s, read-out: IC50 μM −80 mV): 3.2 µM | IC50 (hHCN1; voltage step to −120 mV for 1 s, read-out: IC50 μM −120 mV): 8.6 µM | median percentage of time spent in NREM [1, 11]: 46.4* % | median percentage of time spent in Sleep [1, 11]: 54.1* % | median percentage of time spent in Waking [1, 11]: 45.9* % | median percentage of time spent in NREM [1, 12]: 63.5% | median percentage of time spent in Sleep [1, 12]: 80.4% | median percentage of time spent in Waking [1, 12]: 19.6% | median percentage of time spent in NREM [1, 13]: 63.8% | median percentage of time spent in Sleep [1, 13]: 77.9% | median percentage of time spent in Waking [1, 13]: 22.1% | median percentage of time spent in NREM [1, 14]: 40.9% | median percentage of time spent in Sleep [1, 14]: 47.3% | median percentage of time spent in Waking [1, 14]: 52.7% | median percentage of time spent in NREM ([1]; 1 mg/kg i.p., 0-3 h, lights on): 7.6* % | median percentage of time spent in Sleep ([1]; 1 mg/kg i.p., 0-3 h, lights on): 7.6* % | median percentage of time spent in Waking ([1]; 1 mg/kg i.p., 0-3 h, lights on): 92.4* % | median percentage of time spent in NREM ([1]; 1 mg/kg i.p., 3-6 h, lights on): 59.1* % | median percentage of time spent in Sleep ([1]; 1 mg/kg i.p., 3-6 h, lights on): 64.2* % | median percentage of time spent in Waking ([1]; 1 mg/kg i.p., 3-6 h, lights on): 35.8* % | median percentage of time spent in NREM ([1]; 1 mg/kg i.p., 6-9 h, lights on): 63.9* % | median percentage of time spent in Sleep ([1]; 1 mg/kg i.p., 6-9 h, lights on): 81.2% | median percentage of time spent in Waking ([1]; 1 mg/kg i.p., 6-9 h, lights on): 18.8% | median percentage of time spent in NREM [1, 15]: 42.1% | median percentage of time spent in Sleep [1, 15]: 51.8% | median percentage of time spent in Waking [1, 15]: 48.2% | effect on waking and sleep compared to placebo ([1]; Org 34167 i.p., first 3-6 hours of the session): dose dependently increased waking and decreased sleep
